In patent US6461844B1, “Liver GalNAc-1-phosphate kinase” (The Board of Trustees of the University of Arkansas, priority 1995, dated 2002):
Entries after “also recorded” stand apart in the source; their conditions may differ. Values belong to the compound of their own block, whether it stands above or below them.

Experiments:
GalNAc kinase [1] = molecular target: T1, GalNAc kinase (Sus scrofa, UniProt A0A287BB25); assay: Effect of sulfhydryl reagents on GalNAc kinase activity; format: biochemical, pig; settings: for Activity (cpm in Sugar-P): control 8700
T1 construct: This enzyme was purified about 1400-fold from the cytosolic fraction of pig kidney; from tissue; host or cells: pig kidney cytosol
T1 sequence (A0A287BB25 1-458): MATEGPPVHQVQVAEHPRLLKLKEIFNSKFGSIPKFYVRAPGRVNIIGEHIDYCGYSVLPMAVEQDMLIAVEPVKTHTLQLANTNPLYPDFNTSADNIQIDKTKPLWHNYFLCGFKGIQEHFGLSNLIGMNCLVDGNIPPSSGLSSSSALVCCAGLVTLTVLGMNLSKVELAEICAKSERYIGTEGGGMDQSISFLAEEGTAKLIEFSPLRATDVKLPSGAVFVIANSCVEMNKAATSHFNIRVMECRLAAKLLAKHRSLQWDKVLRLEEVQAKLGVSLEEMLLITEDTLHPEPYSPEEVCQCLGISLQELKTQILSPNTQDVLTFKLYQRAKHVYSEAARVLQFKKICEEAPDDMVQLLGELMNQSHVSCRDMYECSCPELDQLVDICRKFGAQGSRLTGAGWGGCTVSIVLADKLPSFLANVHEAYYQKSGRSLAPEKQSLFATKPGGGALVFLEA
Experimental: (§1) GalNAc kinase activity was assayed in incubation mixtures of 200 μl containing the following components: [^3H]GalNAc (10,000 cpm), 1 μmole of ATP, 2 μmoles of MgCl2, 20 μmoles of Tris-HCl buffer, pH 7.5, and various amounts of the enzyme preparations to be assayed. Following an incubation for the appropriate time, the reaction was stopped by heating at 100° C. for 5 min., and the incubation mixture was applied to a column of DE-52. The column was washed with at least 5 column volumes of 10 mM (NH4)HCO3 buffer to remove unbound material, and then GalNAc phosphate was eluted with 500 mM ammonium bicarbonate. Aliquots of the wash and eluent were removed and assayed for their radioactive content by scintillation counting.
In order to determine whether sulfhydryl groups are necessary for catalytic activity, the effects of various compounds known to react with and inactivate sulfhydryl groups, were examined on the kinase activity.

GalNAc kinase [2] = molecular target: T1, GalNAc kinase; assay: Phosphate donor specificity of GalNAc kinase; format: biochemical, pig; set-up: Radioactivity in Sugar-P: unit not given beside the values; settings: for Radioactivity in Sugar-P / Specific Activity: nucleotide added at 5 mM
GalNAc kinase [3] = molecular target: T1, GalNAc kinase; assay: Sugar specificity of GalNAc kinase; format: biochemical, pig; settings: for Radioactivity Incorp.: labeled sugars of same specific activity
Experimental: as §1
A variety of sugars were tested and in each case the specific radioactivity of the labeled sugar was adjusted with unlabeled material so that all were of the same specific activity in order to allow a true comparison of their ability to serve as substrates for the kinase. The amount of radioactivity that bound to DE-52 and was eluted with (NH4)HCO3 was taken as a measure of phosphorylation by the enzyme.

GalNAc kinase [4] = molecular target: T1, GalNAc kinase; assay: Divalent cation requirement of GalNAc kinase; format: biochemical, pig; settings: for stimulation of the kinase: tested at a variety of concentrations
Experimental: FIG. 1 illustrates the effect of various divalent cations on the GalNAc kinase. Various amounts of Mg^++, Mn^++, or Co^++ were added to incubations prepared as indicated below. The amount of GalNAc phosphorylated in each incubation by the purified enzyme was determined as described in the assay conditions.
as §1
The addition of Mg^++ greatly stimulated the activity, and maximum activity occurred at 6 mM Mg^++. Other divalent cations, such as Mn^++ and Co^++ were also somewhat stimulatory, but much less so than Mg^++.

[5] = test system: UDP-GlcNAc pyrophosphorylases; settings: UDP-GlcNAc = 100%; cited from earlier work

Structure (SMILES): NC(=O)CI [IAA, iodoacetamide]
- concentration at which effective as an inhibitor (GalNAc kinase [1]): above 1 mM
- Activity (cpm in Sugar-P) (GalNAc kinase [1]; inhibitor 0.1 mM): 8260 cpm
- Activity (cpm in Sugar-P) (GalNAc kinase [1]; inhibitor 0.5 mM): 7660 cpm
- Activity (cpm in Sugar-P) (GalNAc kinase [1]; inhibitor 1 mM): 5490 cpm
- Activity (cpm in Sugar-P) (GalNAc kinase [1]; inhibitor 2 mM): 2170 cpm
- Activity (cpm in Sugar-P) (GalNAc kinase [1]; inhibitor 4 mM): 658 cpm

- Radioactivity in Sugar-P (GalNAc kinase [2]): 900
- Specific Activity (GalNAc kinase [2]): 14.1 nmol/mg
Structure (SMILES): O=c1[nH]cnc2c1ncn2[C@@H]1O[C@H](COP(=O)(O)OP(=O)(O)OP(=O)(O)O)[C@@H](O)[C@H]1O [ITP]
- activity as phosphate donor (GalNAc kinase [2]): slight activity; also recorded: some activity

- Radioactivity Incorp. (GalNAc kinase [3]; 4 μl enzyme): 475 cpm
- Radioactivity Incorp. (GalNAc kinase [3]; 8 μl enzyme): 89 cpm
- activity as phosphate acceptor (GalNAc kinase [3]; purified kinase): inactive
Structure (SMILES): CC(=O)N[C@@H]1C(O)O[C@H](CO)[C@@H](O)[C@@H]1O (stereo partly shown) [ManNAc, N-acetylmannosamine]

- cation concentration for maximum (optimum) activity (GalNAc kinase [4]): 2 to 8 mM
- maximum activity relative to optimum concentrations of Mg++ (GalNAc kinase [4]; at optimum cation concentration): about 50%
Structure (SMILES): [Mn+2] [Mn^++]

- stimulation of the kinase (GalNAc kinase [4]): inactive
Structure (SMILES): [Mo+2] [Mo^++]

Structure (SMILES): CCN1C(=O)C=CC1=O [NEM, N-ethylmaleimide]
- inhibition at 500 µM (GalNAc kinase [1]; 0.5 mM, read-out: inhibition of enzymatic activity): 90%
- Activity (cpm in Sugar-P) (GalNAc kinase [1]; inhibitor 0.1 mM): 9050 cpm
- Activity (cpm in Sugar-P) (GalNAc kinase [1]; inhibitor 0.5 mM): 805 cpm
- Activity (cpm in Sugar-P) (GalNAc kinase [1]; inhibitor 1 mM): 40 cpm
- Activity (cpm in Sugar-P) (GalNAc kinase [1]; inhibitor 2 mM): 0 cpm
- Activity (cpm in Sugar-P) (GalNAc kinase [1]; inhibitor 4 mM): 0 cpm

Structure (SMILES): [Ni+2] [Ni^++]
- stimulation of the kinase (GalNAc kinase [4]): inactive

Structure (SMILES): CC(=O)N[C@H]1[C@@H](OP(=O)(O)OP(=O)(O)OC[C@H]2O[C@@H](n3ccc(=O)[nH]c3=O)[C@H](O)[C@@H]2O)O[C@H](CO)[C@@H](O)[C@@H]1O [UDP-GlcNAc]
- activity towards substrate [5]: 100%

- Radioactivity in Sugar-P (GalNAc kinase [2]): 30
- Specific Activity (GalNAc kinase [2]): 0.5 nmol/mg
Structure (SMILES): O=c1ccn([C@@H]2O[C@H](COP(=O)(O)OP(=O)(O)O)[C@@H](O)[C@H]2O)c(=O)[nH]1 [UDP]

- Radioactivity in Sugar-P (GalNAc kinase [2]): 180
- Specific Activity (GalNAc kinase [2]): 2.8 nmol/mg
Structure (SMILES): O=c1ccn([C@@H]2O[C@H](COP(=O)(O)OP(=O)(O)OP(=O)(O)O)[C@@H](O)[C@H]2O)c(=O)[nH]1 [UTP]

- stimulation of the kinase (GalNAc kinase [4]): inactive
Structure (SMILES): [Zn+2] [Zn^++]

- activity as phosphate donor (GalNAc kinase [2]): No activity
Structure (SMILES): CC(=O)OP(=O)(O)O [acetylphosphate]

Structure (SMILES): O=C(O)c1cc[c]([Hg][Cl])cc1 [pCMB, p-chloromercuribenzoate]
- inhibition of enzymatic activity (GalNAc kinase [1]; 0.02 mM): over 70%
- inhibition of enzymatic activity (GalNAc kinase [1]; 0.04 mM): complete inhibition
- Activity (cpm in Sugar-P) (GalNAc kinase [1]; inhibitor 0.02 mM): 2660 cpm
- Activity (cpm in Sugar-P) (GalNAc kinase [1]; inhibitor 0.04 mM): 250 cpm
- Activity (cpm in Sugar-P) (GalNAc kinase [1]; inhibitor 0.06 mM): 30 cpm
- Activity (cpm in Sugar-P) (GalNAc kinase [1]; inhibitor 0.1 mM): 20 cpm
- Activity (cpm in Sugar-P) (GalNAc kinase [1]; inhibitor 0.25 mM): 50 cpm

- activity as phosphate donor (GalNAc kinase [2]): No activity
Structure (SMILES): C=C(OP(=O)(O)O)C(=O)O [phosphoenolpyruvate]
